According to PubChem BioAssay (NCI):
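Here, GI50 denotes the concentration required for 50% inhibition of growth. Definition used: TGI = concentration required for complete inhibition of growth.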

Assays:
Experiment in all cases: inhibition of tumour cell growth, NCI panel, 384-well format
SNB-19 CNS = test system: SNB-19 CNS
SR leukemia = test system: SR leukemia
IGROV1 ovarian = test system: IGROV1 ovarian
TK-10 renal = test system: TK-10 renal
RXF 393 renal = test system: RXF 393 renal
RPMI-8226 leukemia = test system: RPMI-8226 leukemia
CAKI-1 renal = test system: CAKI-1 renal
EKVX NSCLC = test system: EKVX NSCLC
NCI-H522 lung = test system: NCI-H522 lung
MDA-MB-468 breast = test system: MDA-MB-468 breast
NCI-H460 NSCLC = test system: NCI-H460 NSCLC
SF-268 CNS = test system: SF-268 CNS
SK-MEL-5 melanoma = test system: SK-MEL-5 melanoma

CS(=O)(=O)CCNCc1ccc(-c2ccc3ncnc(Nc4ccc(OCc5cccc(F)c5)c(Cl)c4)c3c2)o1
GI50 (SNB-19 CNS): 4430 nM
TGI (SNB-19 CNS): 9080 nM
GI50 (SR leukemia): 2090 nM
TGI (SR leukemia): 3530 nM
GI50 (IGROV1 ovarian): 751 nM
TGI (IGROV1 ovarian): 2870 nM
GI50 (TK-10 renal): 644 nM
TGI (TK-10 renal): 4500 nM
GI50 (RXF 393 renal): 1460 nM
TGI (RXF 393 renal): 2790 nM
GI50 (RPMI-8226 leukemia): 1850 nM
TGI (RPMI-8226 leukemia): 3250 nM
GI50 (CAKI-1 renal): 1460 nM
TGI (CAKI-1 renal): 2970 nM
GI50 (EKVX NSCLC): 777 nM
TGI (EKVX NSCLC): 3130 nM
GI50 (NCI-H522 lung): 102 nM
TGI (NCI-H522 lung): 1480 nM
GI50 (MDA-MB-468 breast): 45.2 nM
TGI (MDA-MB-468 breast): 260 nM
GI50 (NCI-H460 NSCLC): 1860 nM
TGI (NCI-H460 NSCLC): 3290 nM
GI50 (SF-268 CNS): 2630 nM
TGI (SF-268 CNS): 6970 nM
GI50 (SK-MEL-5 melanoma): 1770 nM
TGI (SK-MEL-5 melanoma): 3160 nM
